{
  "source": "ChEMBL document CHEMBL3044789",
  "about": "“Comparing weed and crop seedling response to pre-emergence pendimethalin application in Corchorus olitorius and Abelmoschus esculentus” (Crop Prot, 2006)",
  "key": {"Synedrella nodiflora [1]": {"system": "Synedrella nodiflora", "assay": "Herbicidal activity against Synedrella nodiflora in Abelmoschus esculentus plots assessed as weed cover at 0.66 kg a.i/ha after 2 weeks (reference value: 63.5 +/- 0.29 %)", "type": "functional"}, "Calopogonium mucunoides [2]": {"system": "Calopogonium mucunoides", "assay": "Herbicidal activity against Calopogonium mucunoides in Abelmoschus esculentus plots assessed as weed cover at 1.32 kg a.i/ha after 2 weeks (reference value: 63.5 +/- 0.29 %)", "type": "functional"}, "Euphorbia heterophylla [3]": {"system": "Euphorbia heterophylla", "assay": "Herbicidal activity against Euphorbia heterophylla in Corchorus olitorius plots assessed as weed cover at 0.99 kg a.i/ha after 7 weeks (reference value: 1.7 +/- 0.56 %)", "type": "functional"}, "Calopogonium mucunoides [4]": {"system": "Calopogonium mucunoides", "assay": "Herbicidal activity against Calopogonium mucunoides in Abelmoschus esculentus plots assessed as weed cover at 0.66 kg a.i/ha after 4 weeks (reference value: 22.6 +/- 0.49 %)", "type": "functional"}, "Ageratum conyzoides [5]": {"system": "Ageratum conyzoides", "assay": "Herbicidal activity against Ageratum conyzoides in Corchorus olitorius plots assessed as weed cover at 0.33 kg a.i/ha after 2 weeks (reference value: 81.7 +/- 0.43 %)", "type": "functional"}, "Euphorbia heterophylla [6]": {"system": "Euphorbia heterophylla", "assay": "Herbicidal activity against Euphorbia heterophylla in Corchorus olitorius plots assessed as major weed growth at 1.32 kg a.i/ha after 2 weeks", "type": "functional"}, "Synedrella nodiflora [7]": {"system": "Synedrella nodiflora", "assay": "Herbicidal activity against Synedrella nodiflora in Abelmoschus esculentus plots assessed as weed recovery at 0.33 kg a.i/ha after 2 weeks (reference value: 60.1 +/- 0.46 %)", "type": "functional"}, "Synedrella nodiflora [8]": {"system": "Synedrella nodiflora", "assay": "Herbicidal activity against Synedrella nodiflora in Abelmoschus esculentus plots assessed as weed cover at 1.32 kg a.i/ha after 7 weeks (reference value: 14.7 +/- 0.46 %)", "type": "functional"}, "Calopogonium mucunoides [9]": {"system": "Calopogonium mucunoides", "assay": "Herbicidal activity against Calopogonium mucunoides in Corchorus olitorius plots assessed as weed cover at 0.33 kg a.i/ha after 4 weeks (reference value: 20.1+/- 0.57 %)", "type": "functional"}, "Calopogonium mucunoides [10]": {"system": "Calopogonium mucunoides", "assay": "Herbicidal activity against Calopogonium mucunoides in Corchorus olitorius plots assessed as weed cover at 0.99 kg a.i/ha after 7 weeks (reference value: 1.7 +/- 0.56 %)", "type": "functional"}, "Corchorus olitorius [11]": {"system": "Corchorus olitorius", "assay": "Phytotoxicity in Corchorus olitorius assessed as shoot length at 0.66 kg a.i/ha treated to soil after 7 weeks (reference value: 23.7 +/- 0.10 mm)", "type": "organism-based", "conditions": "in vivo, other, 1176 h"}, "Abelmoschus esculentus": {"system": "Abelmoschus esculentus", "assay": "Phytotoxicity in Abelmoschus esculentus assessed as seedling emergence at 1.32 kg a.i/ha treated to soil after 7 weeks (reference value: 95 +/- 0.05 %)", "type": "organism-based", "conditions": "in vivo, other, 1176 h"}, "Mimosa pudica": {"system": "Mimosa pudica", "assay": "Herbicidal activity against Mimosa pudica in Abelmoschus esculentus plots assessed as weed cover at 0.33 kg a.i/ha after 4 weeks (reference value: 22.6 +/- 0.49 %)", "type": "functional"}, "Calopogonium mucunoides [12]": {"system": "Calopogonium mucunoides", "assay": "Herbicidal activity against Calopogonium mucunoides in Abelmoschus esculentus plots assessed as weed recovery at 0.66 kg a.i/ha after 2 weeks (reference value: 60.1 +/- 0.46 %)", "type": "functional"}, "Synedrella nodiflora [13]": {"system": "Synedrella nodiflora", "assay": "Herbicidal activity against Synedrella nodiflora in Corchorus olitorius plots assessed as major weed growth at 0.33 kg a.i/ha after 2 weeks", "type": "functional"}, "Asteraceae": {"system": "Asteraceae", "assay": "Herbicidal activity against Aspilia africana in Corchorus olitorius plots assessed as weed cover at 0.66 kg a.i/ha after 7 weeks (reference value: 1.7 +/- 0.56 %)", "type": "functional"}, "Synedrella nodiflora [14]": {"system": "Synedrella nodiflora", "assay": "Herbicidal activity against Synedrella nodiflora in Abelmoschus esculentus plots assessed as weed cover at 0.66 kg a.i/ha after 7 weeks (reference value: 14.7 +/- 0.46 %)", "type": "functional"}, "Corchorus olitorius [15]": {"system": "Corchorus olitorius", "assay": "Phytotoxicity in Corchorus olitorius assessed as seedling emergence at 1.32 kg a.i/ha treated to soil after 7 weeks (reference value: 95 +/- 0.05 %)", "type": "organism-based", "conditions": "in vivo, other, 1176 h"}, "Talinum fruticosum": {"system": "Talinum fruticosum", "assay": "Herbicidal activity against Talinum fruticosum in Abelmoschus esculentus plots assessed as weed cover at 0.99 kg a.i/ha after 4 weeks (reference value: 22.6 +/- 0.49 %)", "type": "functional"}, "Cyperus rotundus": {"system": "Cyperus rotundus", "assay": "Herbicidal activity against Cyperus rotundus in Corchorus olitorius plots assessed as weed recovery at 0.66 kg a.i/ha after 2 weeks (reference value: 78.3 +/- 0.74 %)", "type": "functional"}, "[16]": {"system": "Rottboellia cochinchinensis", "assay": "Herbicidal activity against Rottboellia cochinchinensis in Corchorus olitorius plots assessed as weed cover at 0.33 kg a.i/ha after 2 weeks (reference value: 81.7 +/- 0.43 %)", "type": "functional"}, "[17]": {"system": "Rottboellia cochinchinensis", "assay": "Herbicidal activity against Rottboellia cochinchinensis in Corchorus olitorius plots assessed as weed cover at 0.33 kg a.i/ha after 7 weeks (reference value: 1.7 +/- 0.56 %)", "type": "functional"}, "Synedrella nodiflora [18]": {"system": "Synedrella nodiflora", "assay": "Herbicidal activity against Synedrella nodiflora in Corchorus olitorius plots assessed as weed cover at 0.99 kg a.i/ha after 4 weeks (reference value: 20.1+/- 0.57 %)", "type": "functional"}, "Euphorbia heterophylla [19]": {"system": "Euphorbia heterophylla", "assay": "Herbicidal activity against Euphorbia heterophylla in Abelmoschus esculentus plots assessed as weed cover at 0.99 kg a.i/ha after 2 weeks (reference value: 63.5 +/- 0.29 %)", "type": "functional"}, "Euphorbia heterophylla [20]": {"system": "Euphorbia heterophylla", "assay": "Herbicidal activity against Euphorbia heterophylla in Abelmoschus esculentus plots assessed as weed cover at 0.99 kg a.i/ha after 7 weeks (reference value: 14.7 +/- 0.46 %)", "type": "functional"}, "Euphorbia heterophylla [21]": {"system": "Euphorbia heterophylla", "assay": "Herbicidal activity against Euphorbia heterophylla in Corchorus olitorius plots assessed as weed recovery at 0.99 kg a.i/ha after 2 weeks (reference value: 78.3 +/- 0.74 %)", "type": "functional"}, "Ageratum conyzoides [22]": {"system": "Ageratum conyzoides", "assay": "Herbicidal activity against Ageratum conyzoides in Abelmoschus esculentus plots assessed as weed recovery at 1.32 kg a.i/ha after 2 weeks (reference value: 60.1 +/- 0.46 %)", "type": "functional"}, "Euphorbia heterophylla [23]": {"system": "Euphorbia heterophylla", "assay": "Herbicidal activity against Euphorbia heterophylla in Abelmoschus esculentus plots assessed as weed cover at 0.33 kg a.i/ha after 7 weeks (reference value: 14.7 +/- 0.46 %)", "type": "functional"}, "Corchorus olitorius [24]": {"system": "Corchorus olitorius", "assay": "Phytotoxicity in Corchorus olitorius assessed as seedling injury at 0.99 kg a.i/ha applied as solution after 7 weeks relative to control", "type": "organism-based", "conditions": "in vivo, other, 1176 h"}, "Calopogonium mucunoides [25]": {"system": "Calopogonium mucunoides", "assay": "Herbicidal activity against Calopogonium mucunoides in Corchorus olitorius plots assessed as weed cover at 1.32 kg a.i/ha after 7 weeks (reference value: 1.7 +/- 0.56 %)", "type": "functional"}, "Euphorbia heterophylla [26]": {"system": "Euphorbia heterophylla", "assay": "Herbicidal activity against Euphorbia heterophylla in Abelmoschus esculentus plots assessed as weed cover at 0.99 kg a.i/ha after 4 weeks (reference value: 22.6 +/- 0.49 %)", "type": "functional"}, "[27]": {"system": "Rottboellia cochinchinensis", "assay": "Herbicidal activity against Rottboellia cochinchinensis in Abelmoschus esculentus plots assessed as weed cover at 0.33 kg a.i/ha after 2 weeks (reference value: 63.5 +/- 0.29 %)", "type": "functional"}, "Synedrella nodiflora [28]": {"system": "Synedrella nodiflora", "assay": "Herbicidal activity against Synedrella nodiflora in Corchorus olitorius plots assessed as weed recovery at 0.33 kg a.i/ha after 2 weeks (reference value: 78.3 +/- 0.74 %)", "type": "functional"}, "Ageratum conyzoides [29]": {"system": "Ageratum conyzoides", "assay": "Herbicidal activity against Ageratum conyzoides in Corchorus olitorius plots assessed as weed cover at 1.32 kg a.i/ha after 7 weeks (reference value: 1.7 +/- 0.56 %)", "type": "functional"}, "Calopogonium mucunoides [30]": {"system": "Calopogonium mucunoides", "assay": "Herbicidal activity against Calopogonium mucunoides in Corchorus olitorius plots assessed as major weed growth at 1.32 kg a.i/ha after 2 weeks", "type": "functional"}, "Corchorus olitorius [31]": {"system": "Corchorus olitorius", "assay": "Phytotoxicity in Corchorus olitorius assessed as root length at 0.66 kg a.i/ha applied as solution after 7 weeks (reference value: 14.3 +/- 1.06 mm)", "type": "organism-based", "conditions": "in vivo, other, 1176 h"}},
  "data": [
    {"compound": "CCC(CC)Nc1c([N+](=O)[O-])cc(C)c(C)c1[N+](=O)[O-]", "note": "[PENDIMETHALIN]", "values": [
      {"measurement": "Activity", "setting": "Synedrella nodiflora [1]", "result": 50.8, "unit": "%"},
      {"measurement": "Activity", "setting": "Calopogonium mucunoides [2]", "result": 45, "unit": "%"},
      {"measurement": "Activity", "setting": "Euphorbia heterophylla [3]", "result": 95, "unit": "%"},
      {"measurement": "Activity", "setting": "Calopogonium mucunoides [4]", "result": 47.9, "unit": "%"},
      {"measurement": "Activity", "setting": "Ageratum conyzoides [5]", "result": 63.3, "unit": "%"},
      {"measurement": "Activity", "setting": "Euphorbia heterophylla [6]", "result": "31 /m2"},
      {"measurement": "Activity", "setting": "Synedrella nodiflora [7]", "result": 39.2, "unit": "%"},
      {"measurement": "Activity", "setting": "Synedrella nodiflora [8]", "result": 82.4, "unit": "%"},
      {"measurement": "Activity", "setting": "Calopogonium mucunoides [9]", "result": 73.3, "unit": "%"},
      {"measurement": "Activity", "setting": "Calopogonium mucunoides [10]", "result": 95, "unit": "%"},
      {"measurement": "Activity", "setting": "Corchorus olitorius [11]", "result": 20.8, "unit": "mm"},
      {"measurement": "Activity", "setting": "Abelmoschus esculentus", "result": 85, "unit": "%"},
      {"measurement": "Activity", "setting": "Mimosa pudica", "result": 53.8, "unit": "%"},
      {"measurement": "Activity", "setting": "Calopogonium mucunoides [12]", "result": 47.9, "unit": "%"},
      {"measurement": "Activity", "setting": "Synedrella nodiflora [13]", "result": "31 /m2"},
      {"measurement": "Activity", "setting": "Asteraceae", "result": 100, "unit": "%"},
      {"measurement": "Activity", "setting": "Synedrella nodiflora [14]", "result": 90, "unit": "%"},
      {"measurement": "Activity", "setting": "Corchorus olitorius [15]", "result": 83.3, "unit": "%"},
      {"measurement": "Activity", "setting": "Talinum fruticosum", "result": 39.2, "unit": "%"},
      {"measurement": "Activity", "setting": "Cyperus rotundus", "result": 33.3, "unit": "%"},
      {"measurement": "Activity", "setting": "[16]", "result": 63.3, "unit": "%"},
      {"measurement": "Activity", "setting": "[17]", "result": 100, "unit": "%"},
      {"measurement": "Activity", "setting": "Synedrella nodiflora [18]", "result": 48.3, "unit": "%"},
      {"measurement": "Activity", "setting": "Euphorbia heterophylla [19]", "result": 47.9, "unit": "%"},
      {"measurement": "Activity", "setting": "Euphorbia heterophylla [20]", "result": 83.9, "unit": "%"},
      {"measurement": "Activity", "setting": "Euphorbia heterophylla [21]", "result": 21.7, "unit": "%"},
      {"measurement": "Activity", "setting": "Ageratum conyzoides [22]", "result": 33.2, "unit": "%"},
      {"measurement": "Activity", "setting": "Euphorbia heterophylla [23]", "result": 90, "unit": "%"},
      {"measurement": "Activity", "setting": "Corchorus olitorius [24]", "result": 46.7, "unit": "%"},
      {"measurement": "Activity", "setting": "Calopogonium mucunoides [25]", "result": 95, "unit": "%"},
      {"measurement": "Activity", "setting": "Euphorbia heterophylla [26]", "result": 39.2, "unit": "%"},
      {"measurement": "Activity", "setting": "[27]", "result": 56.8, "unit": "%"},
      {"measurement": "Activity", "setting": "Synedrella nodiflora [28]", "result": 31.7, "unit": "%"},
      {"measurement": "Activity", "setting": "Ageratum conyzoides [29]", "result": 95, "unit": "%"},
      {"measurement": "Activity", "setting": "Calopogonium mucunoides [30]", "result": "31 /m2"},
      {"measurement": "Activity", "setting": "Corchorus olitorius [31]", "result": 2.6, "unit": "mm"}
    ]}
  ]
}
